# Experimental data reported in patent US20240180910A1, “METHOD FOR TREATING CANCER WITH A CHEMOTHERAPEUTIC MODIFIER” (Elion Oncology, Inc., priority 2022, published 2024).
# Like-named read-outs stand apart in the source and are kept apart here.
# Tests used:
# [1] = cited from earlier work; for t1/2: arithmetic mean
# [2] = cited from earlier work
# [3] = doses up to 50 g per day administered for seven days; cited from earlier work
# [4] = human, in vivo
# Experimental: (§1) To evaluate the safety, dose-limiting toxicities (DLTs), and maximum tolerated dose (MTD) of capecitabine administered to patients with advanced, refractory gastrointestinal tract (GI) tumors using a 7 days on +7 days off capecitabine regimen ˜24 hours after a single, fixed, oral 40 mg dose of eniluracil.
# (§2) Eniluracil (40-50 mg) is orally administrated at Day 1. After 12-24 hours, capecitabine is orally administered. Capecitabine is given twice a day at 140-600 mg/day for a total of 7 days. Then the patient is rested for 7 days before receiving the next cycle which follows the above-described procedures. The cycles are repeated until either the patient has a complete response or when the disease progresses in the patient. A complete response means that the tumor is no longer present. Progression of the cancer means that the tumor starts enlarging or the tumor is no longer stable.
# (§3) Primary Endpoints: • DLTs and incidences of AEs according to NCI CTCAE Version 5.0. • Concentrations of capecitabine, 5 FU, FBAL, 5′ DFCR, and 5′ DFUR in plasma, PK parameters will be estimated from concentration time data using noncompartmental methods, as data permit. • Concentrations of eniluracil in plasma; PK parameters will be estimated from concentration-time data using noncompartmental methods, as data permit. • 2.
# (§4) Briefly, capecitabine was administered to patients with advanced, refractory gastrointestinal tract (GI) tumors using a 7 days on +7 days off capecitabine regimen ˜24 hours after a single, fixed, oral 40 mg dose of eniluracil.
# [5] = Clinical trial: plasma pharmacokinetics, capecitabine 7 days on + 7 days off ~24 hours after single oral 40 mg eniluracil; conditions: day 8
# Experimental: as §1, §2, §3, §4
# [6] = colon cancer, adjuvant, XELODA 1250 mg/m^2/bid (n = 995), i.v. 5-FU/LV Mayo Clinic regimen (n = 974), cited from earlier work
# [7] = system: patient-derived colon cancer xenograft CXF 280; conditions: for Minimum T/C: days 1-14, 22-35, Day 35
# Experimental: This study was to assess the antitumor efficacy of eniluracil in combination with different doses of capecitabine in the patient-derived colon xenograft CXF 280 subcutaneously implanted in immunodeficient athymic nude mice.
# The study consisted of an in vivo efficacy experiment with the patient-derived colon cancer xenograft CXF 280 implanted subcutaneously in athymic nude mice.
# This experiment consisted of six groups with six animals each. Animals were dosed in monotherapy with capecitabine at 300 or at 30 mg/kg/day daily for 2 weeks with a one-week dosing break followed by another 2 weeks of daily dosing (14 days ON and 7 days OFF). In combination therapies, capecitabine was dosed at 30, 15 or 7.5 mg/kg/day on days 1-7, 15-21 and 29-35 (7 days ON and 7 days OFF) as well as with eniluracil at 10 mg/kg/day on days 1, 3, 5, 15, 17, 19, 29, 31, and 33.
# Combination therapies with capecitabine and eniluracil scheduled for the same dosing day were administered with a six-hour dosing delay after dosing with eniluracil in order to ensure that all the eniluracil is eliminated in the mouse prior to capecitabine administration.
# All therapies were administered via oral gavage (p.o.) over the course of 35 days followed by an observation period of one week until day 42 of the experiment.
# Relative tumor volumes (RTVs) for Day x were calculated by dividing the absolute individual tumor volume on Day x (Tx) by the absolute individual tumor volume of the same tumor on the day of randomization (Tr) multiplied by 100%.
# Tumor growth inhibition was determined by comparison of the median RTV of the test groups (T) with the vehicle control group (C) and was expressed as minimum T/C value in percent. The minimum T/C value recorded for a test group during an experiment represents the maximum antitumor efficacy for the respective treatment.
# [8] = clinical; conditions: human, in vivo
# Experimental: as §1, §2, §3, §4
# [9] = plasma, Day 14, after oral capecitabine 1255 mg/m^2, 8 cancer patients
# [10] = plasma, Day 14, after oral capecitabine 1255 mg/m^2, 8 cancer patients, geometric mean
# [11] = plasma, Day 14, after oral capecitabine 1255 mg/m^2, 8 cancer patients, median
# [12] = 2005 EMA for Xeloda, capecitabine alone 1250 mg/m^2
smiles,measurement,setting,value
"C[C@H]1O[C@@H](n2cc(F)c(N)nc2=O)[C@H](O)[C@@H]1O [5′-DFCR, 5′-deoxy-5-fluorocytidine]",t1/2,[1]; [9],1.31 h
same,AUC0-t,[1]; [10],3970 ng·h/mL
same,AUC0-∞,[1]; [10],5210 ng·h/mL
same,Cmax,[1]; [10],1710 ng/mL
same,tmax,[1]; [11],2.00 h
same,AUC0-∞,[2]; [12],7240 ng·h/mL
same,peak plasma concentrations (Cmax),[2]; [12],3050 ng/mL
same,time to peak plasma concentrations (tmax),[2]; [12],2.00 h
"C[C@H]1O[C@@H](n2cc(F)c(=O)[nH]c2=O)[C@H](O)[C@@H]1O [5′DFUR, doxifluridine]",t1/2,[1]; [9],0.66 h
same,AUC0-t,[1]; [10],19900 ng·h/mL
same,AUC0-∞,[1]; [10],21700 ng·h/mL
same,Cmax,[1]; [10],9370 ng/mL
same,AUC0-∞,[2]; [12],24600 ng·h/mL
same,peak plasma concentrations (Cmax),[2]; [12],12100 ng/mL
same,time to peak plasma concentrations (tmax),[2]; [12],2.00 h
"C#Cc1c[nH]c(=O)[nH]c1=O [Eniluracil, 5-Ethynyluracil]",safety,[3],safe
same,metabolism of capecitabine into FBAL (AUC and Cmax of FBAL),[4],completely blocked
O=C1NCC(F)C(=O)N1 (centres unmarked) [FUH2],t1/2,[1]; [9],1.14 h
same,AUC0-t,[1]; [10],1200 ng·h/mL
same,AUC0-∞,[1]; [10],2150 ng·h/mL
same,Cmax,[1]; [10],442 ng/mL
same,tmax,[1]; [11],2.28 h
"NCC(F)C(=O)O (stereo not drawn) [FBAL, α-fluoro-β-alanine]",AUC0-t,"[1]; human, in vivo, po, 1255 mg/m2",30000 ng·h/mL
same,AUC0-∞,"[1]; human, in vivo, po, 1255 mg/m2",35200 ng·h/mL
same,Cmax,"[1]; human, in vivo, po, 1255 mg/m2",5320 ng/mL
same,exposure (AUC),"[1]; human, in vivo, po, 1255 mg/m2","30-35,000 h*ng/mL"
same,tmax,"[1]; human, in vivo, po, 1255 mg/m2",3.34 h
same,Tmax of FBAL,"[1]; human, in vivo",3.24 h
same,t1/2,[1]; [9],3.23 h
same,AUC0-∞,"[2]; in vivo, 1250 mg/m2",36300 ng·h/mL
same,peak plasma concentrations (Cmax),"[2]; in vivo, 1250 mg/m2",5460 ng/mL
same,time to peak plasma concentrations (tmax),"[2]; in vivo, 1250 mg/m2",3.34 h
same,effects of eniluracil on FBAL metabolism,[5],no longer apparent
"CCCCCOC(=O)Nc1nc(=O)n([C@@H]2O[C@H](C)[C@@H](O)[C@H]2O)cc1F [Capecitabine, capecitabine]",t1/2,[1]; [9],0.85 h
same,AUC0-t,[1]; [10],7290 ng·h/mL
same,AUC0-∞,[1]; [10],7400 ng·h/mL
same,Cmax,[1]; [10],3990 ng/mL
same,tmax,[1]; [11],1.50 h
same,AUC0-∞,[2]; [12],7750 ng·h/mL
same,peak plasma concentrations (Cmax),[2]; [12],4670 ng/mL
same,time to peak plasma concentrations (tmax),[2]; [12],1.50 h
same,"Abdominal pain upper, Grade 3/4",[6],<1%
same,"Abdominal pain upper, Total",[6],6%
same,"Abdominal pain, Grade 3/4",[6],2%
same,"Abdominal pain, Total",[6],10%
same,"Alopecia, Total",[6],6%
same,"Anorexia, Grade 3/4",[6],<1%
same,"Anorexia, Total",[6],9%
same,"Asthenia, Grade 3/4",[6],<1%
same,"Asthenia, Total",[6],9%
same,"Conjunctivitis, Grade 3/4",[6],<1%
same,"Conjunctivitis, Total",[6],5%
same,"Constipation, Total",[6],6%
same,"Diarrhea, Grade 3/4",[6],11%
same,"Dizziness, Grade 3/4",[6],<1%
same,"Dizziness, Total",[6],5%
same,"Dysgeusia, Total",[6],6%
same,"Dyspepsia, Grade 3/4",[6],<1%
same,"Dyspepsia, Total",[6],5%
same,"Erythema, Grade 3/4",[6],1%
same,"Erythema, Total",[6],6%
same,"Fatigue, Grade 3/4",[6],<1%
same,"Fatigue, Total",[6],15%
same,"Hand-foot Syndrome, Grade 3/4",[6],17%
same,"Lethargy, Grade 3/4",[6],<1%
same,"Lethargy, Total",[6],10%
same,"Nausea, Grade 3/4",[6],2%
same,"Nausea, Total",[6],33%
same,"Neutropenia, Grade 3/4",[6],<1%
same,"Neutropenia, Total",[6],2%
same,"Pyrexia, Grade 3/4",[6],<1%
same,"Pyrexia, Total",[6],4%
same,"Rash, Total",[6],6%
same,"Stomatitis, Grade 3/4",[6],2%
same,"Stomatitis, Total",[6],22%
same,"Vomiting, Grade 3/4",[6],2%
same,"Vomiting, Total",[6],14%
same,"Diarrhea, Total",[6]; listed as XELODA,46%
same,"Hand-foot Syndrome, Total",[6]; listed as XELODA,60%
same,"Diarrhea, Total",[6]; listed as Xeloda,about 46%
same,"Hand-foot Syndrome, Total",[6]; listed as Xeloda,about 60%
same,Minimum T/C,[7]; Group 2: capecitabine 300 mg/kg/day p.o.,4.5%
same,Minimum T/C,[7]; Group 3: capecitabine 30 mg/kg/day p.o.,34.9%
same,antitumor activity (in words),[7]; monotherapy with capecitabine at 300 mg/kg/day in mice,high antitumor activity
"O=c1[nH]cc(F)c(=O)[nH]1 [5-FU, 5-Fluorouracil]",5-FU Mean T1/2,[1]; Capecitabine alone,0.76 h
same,exposure (AUC),[1]; after capecitabine oral dosing at 1255 mg/m^2,approximately 1630 h*ng/mL
same,t1/2,[1]; [9],0.76 h
same,AUC0-t,[1]; [10],1620 ng·h/mL
same,AUC0-∞,[1]; [10],1630 ng·h/mL
same,Cmax,[1]; [10],709 ng/mL
same,tmax,[1]; [11],2.00 h
same,AUC0-∞,[2]; [12],2030 ng·h/mL
same,peak plasma concentrations (Cmax),[2]; [12],950 ng/mL
same,half-life,"[8]; 5-FU Day 2 Mean T1/2, capecitabine daily dose 75 (with Eniluracil)",3.6 h
same,half-life,"[8]; 5-FU Day 2 Mean T1/2, capecitabine daily dose 150 (with Eniluracil)",3.35 h
same,half-life,"[8]; 5-FU Day 2 Mean T1/2, capecitabine daily dose 300 (with Eniluracil)",3.54 h
same,half-life,"[8]; 5-FU Day 2 Mean T1/2, capecitabine daily dose 450 (with Eniluracil)",5.71 h
same,half-life,"[8]; half-life (T1/2) of 5-FU at day 2, capecitabine in combination with eniluracil pretreatment, highest over doses",≤ 5.71 h
